Patent US20260055065A1, “PYRIDAZINONE COMPOUNDS WHICH MODULATE MUTANT PROTEINS FOR TREATING RESPIRATORY DISEASES” (The Hospital for Sick Children, priority 2022, published 2026)

Assays:
Assay type in all cases: cell-based
F508del-CFTR = target: T1, F508del-CFTR (Homo sapiens, UniProt P13569, DEL508-508); assay: Dose response, potentiation of forskolin-activated F508del-CFTR chloride channel activity in CFBE41o- cells (fluorescence membrane potential assay); settings: low temperature (27 degrees Celsius) correction, read-out: potency in potentiating cyclic AMP dependent F508del-CFTR chloride channel activity
T1 construct: F508del-CFTR was endogenously expressed in CFBE41o^− cells; endogenous in cells; host or cells: CFBE41o-
T1 sequence (P13569 with tags, fused parts or gaps DEL508-508): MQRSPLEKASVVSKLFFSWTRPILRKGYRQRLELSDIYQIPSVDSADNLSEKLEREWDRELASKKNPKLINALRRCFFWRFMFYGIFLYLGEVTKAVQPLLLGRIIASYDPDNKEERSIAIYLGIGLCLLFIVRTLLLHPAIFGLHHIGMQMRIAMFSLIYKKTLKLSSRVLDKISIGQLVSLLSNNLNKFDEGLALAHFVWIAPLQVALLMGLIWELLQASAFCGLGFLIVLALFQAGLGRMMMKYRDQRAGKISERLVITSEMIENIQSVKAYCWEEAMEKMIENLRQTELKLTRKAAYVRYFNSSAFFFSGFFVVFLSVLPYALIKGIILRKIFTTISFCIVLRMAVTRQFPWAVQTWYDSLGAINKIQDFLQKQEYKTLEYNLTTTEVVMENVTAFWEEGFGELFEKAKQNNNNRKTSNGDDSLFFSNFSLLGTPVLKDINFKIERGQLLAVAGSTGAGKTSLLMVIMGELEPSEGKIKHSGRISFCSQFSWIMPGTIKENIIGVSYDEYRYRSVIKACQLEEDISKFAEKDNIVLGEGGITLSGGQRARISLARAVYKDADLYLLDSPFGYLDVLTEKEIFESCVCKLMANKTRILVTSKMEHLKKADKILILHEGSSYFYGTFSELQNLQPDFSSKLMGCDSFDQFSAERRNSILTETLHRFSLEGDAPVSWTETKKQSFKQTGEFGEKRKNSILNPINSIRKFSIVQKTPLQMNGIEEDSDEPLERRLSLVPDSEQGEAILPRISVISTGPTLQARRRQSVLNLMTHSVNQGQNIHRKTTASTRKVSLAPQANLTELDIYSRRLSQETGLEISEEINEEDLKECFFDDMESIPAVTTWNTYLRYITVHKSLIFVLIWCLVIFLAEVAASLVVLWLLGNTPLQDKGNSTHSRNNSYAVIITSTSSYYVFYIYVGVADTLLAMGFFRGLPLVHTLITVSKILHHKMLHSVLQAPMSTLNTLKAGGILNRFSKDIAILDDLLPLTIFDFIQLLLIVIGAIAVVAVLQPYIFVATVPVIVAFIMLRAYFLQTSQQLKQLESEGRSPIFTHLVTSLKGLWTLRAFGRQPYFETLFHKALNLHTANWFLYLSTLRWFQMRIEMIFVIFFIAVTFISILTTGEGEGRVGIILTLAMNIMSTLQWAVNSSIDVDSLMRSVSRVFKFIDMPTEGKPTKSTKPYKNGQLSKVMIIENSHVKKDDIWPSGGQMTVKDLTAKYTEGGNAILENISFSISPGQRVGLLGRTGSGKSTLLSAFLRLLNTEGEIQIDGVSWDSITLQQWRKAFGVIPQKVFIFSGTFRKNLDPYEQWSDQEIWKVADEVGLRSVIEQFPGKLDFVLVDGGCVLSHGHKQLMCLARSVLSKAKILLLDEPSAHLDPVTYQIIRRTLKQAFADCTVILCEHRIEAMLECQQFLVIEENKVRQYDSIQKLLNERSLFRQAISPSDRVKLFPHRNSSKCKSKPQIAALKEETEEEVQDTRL
Method: In these studies, F508del-CFTR was endogenously expressed in CFBE41o^− cells and it's trafficking defect corrected by low temperature (27 degrees Celsius) incubation. The fold increase in cyclic AMP dependent F508del-CFTR mediated chloride channel activity induced by potentiator treatment was determined using the fluorescence-based, membrane potential difference assay previously described.

Wt-CFTR [1] = target: T2, Wt-CFTR (Homo sapiens, UniProt P13569); assay: Ussing chamber short circuit current, primary human bronchial epithelial cultures; settings: 1 μM, after forskolin 100 nM
T2 sequence (P13569 whole entry): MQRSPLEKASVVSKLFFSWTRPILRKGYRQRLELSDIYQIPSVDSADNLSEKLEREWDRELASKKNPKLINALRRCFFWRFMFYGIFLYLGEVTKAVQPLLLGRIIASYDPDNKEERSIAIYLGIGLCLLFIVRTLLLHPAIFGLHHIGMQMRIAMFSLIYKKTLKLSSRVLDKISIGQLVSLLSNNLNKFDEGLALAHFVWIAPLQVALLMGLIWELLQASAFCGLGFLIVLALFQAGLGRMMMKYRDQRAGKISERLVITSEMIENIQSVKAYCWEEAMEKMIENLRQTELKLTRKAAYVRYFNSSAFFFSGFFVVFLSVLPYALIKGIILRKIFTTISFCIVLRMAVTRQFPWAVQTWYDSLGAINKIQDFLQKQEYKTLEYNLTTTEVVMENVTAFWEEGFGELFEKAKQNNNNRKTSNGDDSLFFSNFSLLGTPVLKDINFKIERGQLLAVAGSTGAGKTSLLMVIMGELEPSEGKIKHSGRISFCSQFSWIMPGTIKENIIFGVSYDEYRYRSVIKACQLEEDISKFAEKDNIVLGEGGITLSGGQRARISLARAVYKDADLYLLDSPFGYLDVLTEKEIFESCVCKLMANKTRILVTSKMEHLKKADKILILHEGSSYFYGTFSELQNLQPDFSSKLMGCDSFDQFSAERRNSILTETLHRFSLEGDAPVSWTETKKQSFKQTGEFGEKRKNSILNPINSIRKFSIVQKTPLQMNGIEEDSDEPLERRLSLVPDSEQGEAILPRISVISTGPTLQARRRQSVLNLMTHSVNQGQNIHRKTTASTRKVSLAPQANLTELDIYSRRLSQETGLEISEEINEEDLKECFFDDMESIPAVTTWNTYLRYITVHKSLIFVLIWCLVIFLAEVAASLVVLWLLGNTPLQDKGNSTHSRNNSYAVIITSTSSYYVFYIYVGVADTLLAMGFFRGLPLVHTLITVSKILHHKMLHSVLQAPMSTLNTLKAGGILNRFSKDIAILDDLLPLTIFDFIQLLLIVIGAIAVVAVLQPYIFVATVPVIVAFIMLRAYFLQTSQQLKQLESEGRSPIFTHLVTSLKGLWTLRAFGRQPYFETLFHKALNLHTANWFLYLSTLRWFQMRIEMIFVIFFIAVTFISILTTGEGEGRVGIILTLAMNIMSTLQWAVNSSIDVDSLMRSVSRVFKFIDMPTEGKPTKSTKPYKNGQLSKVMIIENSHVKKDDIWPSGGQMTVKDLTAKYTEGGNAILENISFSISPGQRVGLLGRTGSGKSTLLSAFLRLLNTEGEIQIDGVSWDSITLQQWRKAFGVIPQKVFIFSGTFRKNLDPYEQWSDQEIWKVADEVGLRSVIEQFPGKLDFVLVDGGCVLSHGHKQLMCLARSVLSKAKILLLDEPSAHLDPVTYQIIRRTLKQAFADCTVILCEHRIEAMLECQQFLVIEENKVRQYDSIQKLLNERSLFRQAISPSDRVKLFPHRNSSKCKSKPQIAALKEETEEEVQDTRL
Method: The impact of SK-POT (compound 11) in potentiating Wt-CFTR mediated transepithelial chloride conduction in primary human bronchial epithelial cultures was then tested.

CFTR = target: T3, CFTR (Mustela putorius furo, UniProt Q07E16); assay: Ussing chamber, primary bronchial epithelial cultures from adult ferret trachea; settings: 1 μM, after forskolin 100 nM
T3 construct: primary bronchial epithelial cultures prepared from adult ferret trachea; from tissue; host or cells: primary bronchial epithelial cultures from adult ferret trachea
T3 sequence (Q07E16 whole entry): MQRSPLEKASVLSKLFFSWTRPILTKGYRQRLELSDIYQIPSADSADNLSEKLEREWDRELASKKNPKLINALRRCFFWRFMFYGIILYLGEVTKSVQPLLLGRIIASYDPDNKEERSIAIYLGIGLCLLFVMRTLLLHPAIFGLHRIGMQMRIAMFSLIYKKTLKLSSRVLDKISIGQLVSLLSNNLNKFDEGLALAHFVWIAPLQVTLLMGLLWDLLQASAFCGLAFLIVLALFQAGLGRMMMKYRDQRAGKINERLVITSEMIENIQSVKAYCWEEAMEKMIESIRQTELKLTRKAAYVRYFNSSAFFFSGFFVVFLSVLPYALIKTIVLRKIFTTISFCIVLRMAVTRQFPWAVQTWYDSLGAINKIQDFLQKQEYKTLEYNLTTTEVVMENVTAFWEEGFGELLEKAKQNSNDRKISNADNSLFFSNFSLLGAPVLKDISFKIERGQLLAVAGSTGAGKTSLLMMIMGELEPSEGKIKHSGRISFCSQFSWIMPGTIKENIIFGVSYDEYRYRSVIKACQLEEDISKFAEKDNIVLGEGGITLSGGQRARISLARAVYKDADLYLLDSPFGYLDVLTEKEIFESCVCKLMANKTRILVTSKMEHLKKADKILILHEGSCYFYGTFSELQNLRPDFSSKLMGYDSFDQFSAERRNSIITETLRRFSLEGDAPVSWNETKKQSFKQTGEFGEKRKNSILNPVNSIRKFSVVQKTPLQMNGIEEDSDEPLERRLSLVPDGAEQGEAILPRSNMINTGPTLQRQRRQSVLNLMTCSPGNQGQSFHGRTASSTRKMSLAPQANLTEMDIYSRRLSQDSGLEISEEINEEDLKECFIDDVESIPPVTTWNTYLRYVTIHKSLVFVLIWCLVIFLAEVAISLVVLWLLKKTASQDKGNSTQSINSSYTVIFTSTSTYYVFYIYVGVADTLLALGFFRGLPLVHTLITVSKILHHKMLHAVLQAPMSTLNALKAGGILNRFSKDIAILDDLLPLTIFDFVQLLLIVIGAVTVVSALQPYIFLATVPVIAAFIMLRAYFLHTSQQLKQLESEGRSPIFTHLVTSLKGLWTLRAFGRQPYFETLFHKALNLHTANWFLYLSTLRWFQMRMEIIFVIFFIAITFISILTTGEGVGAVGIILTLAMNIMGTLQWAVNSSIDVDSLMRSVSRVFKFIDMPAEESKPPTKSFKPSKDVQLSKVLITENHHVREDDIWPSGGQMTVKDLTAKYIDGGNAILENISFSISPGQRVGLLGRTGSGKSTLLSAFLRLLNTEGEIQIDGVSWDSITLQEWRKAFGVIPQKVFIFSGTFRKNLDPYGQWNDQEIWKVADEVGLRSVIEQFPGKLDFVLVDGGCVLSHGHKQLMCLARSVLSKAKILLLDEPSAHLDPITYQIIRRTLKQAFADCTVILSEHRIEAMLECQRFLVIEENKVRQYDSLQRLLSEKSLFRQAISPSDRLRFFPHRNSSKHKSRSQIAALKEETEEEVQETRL
Method: Student's “t” test was conducted.

Wt-CFTR [2] = target: T2, Wt-CFTR; assay: Calu-3 CSE experiments, FLiPR assay of CFTR channel activity; set-up: this airway epithelial cell line endogenously expresses this channel; endogenous in cells; host or cells: Calu-3
Method: Addition of CFTR-inhibitor indicated with grey arrow. Superimposed, we show the effect of acute co-application of VX-770 (open squares) or SK-POT (open triangles) with forskolin. […] Only SK-POT rescued CFTR channel function in the presence of cigarette smoke extract.
Calu-3 cells were cultured using EMEM (Wisent) supplemented with FBS at 20% (v/v) and 1× Penicillin/Streptomycin (Wisent). Calu-3 cells were seeded on clear-bottom, black-walled 96 well plates (Costar, Corning) at a density of 10,000 cells/well and cultured for 2 days post-confluence. Cells then received the chronic treatment of toxin and potentiator. The toxin treatment consisted of either cigarette smoke extract (CSE) prepared in 100% DMSO (University of Alabama at Birmingham), dissolved at a concentration of 2% (v/v) in Calu-3 medium, with an equivalent concentration of DMSO alone serving as the toxin control. The chronic drug treatment was co-applied with the toxin, which included either VX-770 or Compound 11 (both prepared in 100% DMSO) dissolved in Calu-3 medium at a final concentration of 1 μm. VX-770 (Vertex) and Compound 11 solutions were prepared from 1 mM stocks. The control for the drug treatment was the vehicle, DMSO at an equivalent volume. Combining the two toxin treatments and three drug treatments, a total of six treatments were applied chronically to 4 wells per condition, for a total of 24 wells receiving chronic treatment.
Cells were cultured for an additional 24 hours after chronic treatment application, after which cells were incubated with FLiPR assay buffer. The FLiPR assay buffer consisted of blue FLiPR dye (Molecular Devices) dissolved at a concentration of 0.5 mg/mL in chloride-free buffer (150 mM NMDG, 150 mM gluconolactone, 3 mM potassium gluconate, 300 mOsm and pH 7.38). Buffer was incubated with cells at 37 degrees and 5% CO2 for 35 minutes. CFTR function was assessed by measuring changes in fluorescence activity after acute CFTR channel activation by addition of cAMP agonist forskolin dissolved in chloride-free buffer to a final concentration 1 μm, using the SpectraMax i3x multimodal plate reader. Fluorescence readings (excitation 530 nm; emission 560 nm) for each well were taken at 30-second intervals for 5 minutes (baseline) or 10 minutes (activation). CFTR activity was then terminated by addition of CFTR-inhibitor 172 dissolved in chloride-free buffer to a concentration of 10 μm, to further verify the specificity of the response to CFTR activity. Fluorescence changes were recorded at 30-second intervals for another 10 minutes. In analysis, all fluorescence values were normalized per well to the final reading prior to the addition of forskolin and expressed as a percentage of this reading.

CC(C)(C)c1ccc(-n2nc(-c3ccc(F)cc3)c(N3CCCCC3)c(N)c2=O)cc1O [Compound 11, 4-amino-2-(4-(tert-butyl)-3-hydroxyphenyl)-6-(4-fluorophenyl)-5-(piperidin-1-yl)pyridazin-3(2H)-one]
EC50 (F508del-CFTR): 0.005 µM
forskolin activated short circuit currents mediated by Wt-CFTR (Wt-CFTR [1]): potentiated
CFTR channel function in ferret bronchial tissue (CFTR): effective in augmenting CFTR channel function
forskolin-activated CFTR channel activity after CSE exposure (Wt-CFTR [2]; Calu-3, CSE 2%, compounds 1 uM): significant increase in forskolin-activated CFTR channel activity
EC90 (Wt-CFTR [2]; Calu-3, CFTR channel potentiation, read-out: approximate EC90): ~1 µM
